The IC50 is the concentration that inhibits the measured activity by half.

This note sets out measurements from patent US20200405697A1, “Antitumor Agent” (Taiho Pharmaceutical Co., Ltd, priority 2017, published 2020).

The assay addresses T1, human RNR (histidine tagged human M1 and human M2 proteins) (Homo sapiens, UniProt P23921).
T1 construct: made in house; host or cells: Escherichia coli
T1 sequence (P23921 1-792): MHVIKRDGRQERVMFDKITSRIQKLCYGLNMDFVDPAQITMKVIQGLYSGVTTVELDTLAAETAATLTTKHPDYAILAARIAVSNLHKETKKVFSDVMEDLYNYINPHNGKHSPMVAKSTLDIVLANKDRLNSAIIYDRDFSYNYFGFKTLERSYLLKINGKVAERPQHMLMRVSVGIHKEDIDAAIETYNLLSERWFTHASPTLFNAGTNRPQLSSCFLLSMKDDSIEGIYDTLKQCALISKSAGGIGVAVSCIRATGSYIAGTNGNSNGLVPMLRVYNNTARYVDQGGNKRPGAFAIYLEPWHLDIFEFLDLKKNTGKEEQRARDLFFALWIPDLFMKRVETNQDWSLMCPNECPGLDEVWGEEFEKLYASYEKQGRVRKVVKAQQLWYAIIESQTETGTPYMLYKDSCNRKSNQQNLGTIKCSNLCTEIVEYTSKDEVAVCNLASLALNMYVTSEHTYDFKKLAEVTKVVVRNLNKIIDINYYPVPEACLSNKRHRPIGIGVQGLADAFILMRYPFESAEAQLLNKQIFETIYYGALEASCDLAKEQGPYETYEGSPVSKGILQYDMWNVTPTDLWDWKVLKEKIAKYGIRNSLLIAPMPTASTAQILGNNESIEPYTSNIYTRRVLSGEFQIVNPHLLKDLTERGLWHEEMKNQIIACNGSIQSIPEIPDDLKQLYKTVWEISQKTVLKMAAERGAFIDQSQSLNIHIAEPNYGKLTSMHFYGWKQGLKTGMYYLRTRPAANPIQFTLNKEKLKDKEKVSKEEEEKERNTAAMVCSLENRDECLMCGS
Kind of assay: Human RNR inhibition effect (dCDP formation from CDP). The format is biochemical. The note with it: 10 μM CDP, 37° C. for 30 minutes, read-out: RNR inhibitory activity IC50. An outline of the steps:
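His-tagged human M1 (isoform 1) and N-terminal 59-aa-truncated M2 (isoform 2), E. coli-expressed, Ni-purified, preincubated 20 min with compound (1% DMSO). Reaction with 10 μM CDP, 2 mM ATP, 0.24 mM NADPH, 6 mM DTT, 4 mM Mg acetate, 100 mM KCl, 50 mM HEPES pH 7.2, 30 min at 37° C. dCDP formed quantified by reverse-phase HPLC after heat stop.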

Take `COc1cc(Cl)ccc1S(=O)(=O)N[C@H](c1n[nH]c(=O)o1)[C@H](C)c1c(F)ccc2ccccc12` [Example 76, 4-chloro-N-((1S,2R)-2-(2-fluoronaphthalen-1-yl)-1-(5-oxo-4,5-dihydro-1,3,4-oxadiazol-2-yl)propyl)-2-methoxybenzenesulfonamide]: the IC50 was found to be 0.2 µM.

Consider `Cc1cccc2cccc([C@@H](C)[C@H](NS(=O)(=O)c3ccc(Cl)c4c3OCCC4(F)F)c3n[nH]c(=O)o3)c12` [Example 81, 5-chloro-4,4-difluoro-N-((1S,2R)-2-(8-methylnaphthalen-1-yl)-1-(5-oxo-4,5-dihydro-1,3,4-oxadiazol-2-yl)propyl)chroman-8-sulfonamide], for which the IC50 turned out to be 0.28 µM.

For the molecule `COc1cc(Cl)ccc1S(=O)(=O)N[C@H](c1n[nH]c(=O)o1)[C@H](C)c1c(F)ccc(C)c1C` [Example 83, 4-chloro-N-((1S,2R)-2-(6-fluoro-2,3-dimethylphenyl)-1-(5-oxo-4,5-dihydro-1,3,4-oxadiazol-2-yl)propyl)-2-methoxybenzenesulfonamide], the IC50 came out at 0.14 µM.

In the case of `Cc1ccc(F)c([C@@H](C)[C@H](NS(=O)(=O)c2ccc(Cl)cc2C#N)c2n[nH]c(=O)o2)c1C` [Example 84, 4-chloro-2-cyano-N-((1S,2R)-2-(6-fluoro-2,3-dimethylphenyl)-1-(5-oxo-4,5-dihydro-1,3,4-oxadiazol-2-yl)propyl)benzenesulfonamide], the IC50 amounted to 0.36 µM.

In the case of `COc1cc(Cl)ccc1S(=O)(=O)N[C@H](c1n[nH]c(=O)o1)[C@H](C)c1cccc(C)c1C(C)C` [Example 85, 4-chloro-N-((1S,2R)-2-(2-isopropyl-3-methylphenyl)-1-(5-oxo-4,5-dihydro-1,3,4-oxadiazol-2-yl)propyl)-2-methoxybenzenesulfonamide], the IC50 was 0.84 µM.

For the molecule `CCc1cccc([C@@H](C)[C@H](NS(=O)(=O)c2ccc(Cl)cc2OC)c2n[nH]c(=O)o2)c1C` [Example 86, 4-chloro-N-((1S,2R)-2-(3-ethyl-2-methylphenyl)-1-(5-oxo-4,5-dihydro-1,3,4-oxadiazol-2-yl)propyl)-2-methoxybenzenesulfonamide], the IC50 stood at 0.4 µM.

On to `CCc1c(C)cccc1[C@@H](C)[C@H](NS(=O)(=O)c1ccc(Cl)cc1OC)c1n[nH]c(=O)o1` [Example 87, 4-chloro-N-((1S,2R)-2-(2-ethyl-3-methylphenyl)-1-(5-oxo-4,5-dihydro-1,3,4-oxadiazol-2-yl)propyl)-2-methoxybenzenesulfonamide], for which the IC50 was 0.84 µM.

Consider `Cc1ccc(F)c([C@@H](C)[C@H](NS(=O)(=O)c2ccc(Cl)c3c2OCCC3=O)c2n[nH]c(=O)o2)c1C` [Example 88, 5-chloro-N-((1S,2R)-2-(6-fluoro-2,3-dimethylphenyl)-1-(5-oxo-4,5-dihydro-1,3,4-oxadiazol-2-yl)propyl)-4-oxochroman-8-sulfonamide], for which the IC50 was found to be 0.15 µM.

For the molecule `COc1cc(Cl)ccc1S(=O)(=O)N[C@H](c1n[nH]c(=O)o1)C(C)c1c(F)c(F)cc(C)c1Br` (stereo partly drawn) [Example 89, N-((1S)-2-(2-bromo-5,6-difluoro-3-methylphenyl)-1-(5-oxo-4,5-dihydro-1,3,4-oxadiazol-2-yl)propyl)-4-chloro-2-methoxybenzenesulfonamide], the half-maximal inhibitory concentration (IC50) is 0.42 µM.

Take `COc1cc(Cl)ccc1S(=O)(=O)N[C@H](c1n[nH]c(=O)o1)[C@H](C)c1c(C)c(C)cc(F)c1F` [Example 90, 4-chloro-N-((1S,2R)-2-(2,3-difluoro-5,6-dimethylphenyl)-1-(5-oxo-4,5-dihydro-1,3,4-oxadiazol-2-yl)propyl)-2-methoxybenzenesulfonamide]: the IC50 worked out at 0.16 µM.

Turning to `Cc1ccc(F)c([C@@H](C)[C@H](NS(=O)(=O)c2ccc(Cl)cc2-c2ccno2)c2n[nH]c(=O)o2)c1C` [Example 91, 4-chloro-N-((1S,2R)-2-(6-fluoro-2,3-dimethylphenyl)-1-(5-oxo-4,5-dihydro-1,3,4-oxadiazol-2-yl)propyl)-2-(isoxazol-5-yl)benzenesulfonamide], the IC50 worked out at 0.23 µM.

For `Cc1ccc(F)c([C@@H](C)[C@H](NS(=O)(=O)c2ccc(Br)cc2C#N)c2n[nH]c(=O)o2)c1C` [Example 92, 4-bromo-2-cyano-N-((1S,2R)-2-(6-fluoro-2,3-dimethylphenyl)-1-(5-oxo-4,5-dihydro-1,3,4-oxadiazol-2-yl)propyl)benzenesulfonamide], the IC50 was determined as 0.2 µM.

On to `Cc1ccc(F)c([C@@H](C)[C@H](NS(=O)(=O)c2ccc(Cl)c3c2OCC(=O)N3C)c2n[nH]c(=O)o2)c1C` [Example 93, 5-chloro-N-((1S,2R)-2-(6-fluoro-2,3-dimethylphenyl)-1-(5-oxo-4,5-dihydro-1,3,4-oxadiazol-2-yl)propyl)-4-methyl-3-oxo-3,4-dihydro-2H-benzo[b][1,4]oxazine-8-sulfonamide], for which the IC50 is 0.1 µM.

For `CCN1CCOc2c(S(=O)(=O)N[C@H](c3n[nH]c(=O)o3)[C@H](C)c3c(F)ccc(C)c3C)ccc(Cl)c21` [Example 94, 5-chloro-4-ethyl-N-((1S,2R)-2-(6-fluoro-2,3-dimethylphenyl)-1-(5-oxo4,5-dihydro-1,3,4-oxadiazol-2-yl)propyl)-3,4-dihydro-2H-benzo[b][1,4]oxazine-8-sulfonamide], the IC50 amounted to 0.11 µM.

`CCc1ccc(F)c([C@@H](C)[C@H](NS(=O)(=O)c2ccc(Br)cc2C(N)=O)c2n[nH]c(=O)o2)c1C` [Example 96, 5-bromo-2-(N-((1S,2R)-2-(3-ethyl-6-fluoro-2-methylphenyl)-1-(5-oxo-4,5-dihydro-1,3,4-oxadiazol-2-yl)propyl)sulfamoyl)benzamide]: the IC50 was found to be 0.1 µM.

On to `Cc1ccc(F)c([C@@H](C)[C@H](NS(=O)(=O)c2cccc3c2OC(C)(C)CC3=O)c2n[nH]c(=O)o2)c1C` [Example 97, N-((1S,2R)-2-(6-fluoro-2,3-dimethylphenyl)-1-(5-oxo-4,5-dihydro-1,3,4-oxadiazol-2-yl)propyl)-2,2-dimethyl-4-oxochroman-8-sulfonamide], for which the IC50 came out at 0.24 µM.

As to `Cc1ccc(F)c([C@@H](C)[C@H](NS(=O)(=O)c2ccccc2C#N)c2n[nH]c(=O)o2)c1C` [Example 98, 2-cyano-N-((1S,2R)-2-(6-fluoro-2,3-dimethylphenyl)-1-(5-oxo-4,5-dihydro-1,3,4-oxadiazol-2-yl)propyl)benzenesulfonamide], the IC50 is 0.64 µM.

Consider `Cc1ccc(F)c([C@@H](C)[C@H](NS(=O)(=O)c2cccc3c2OCCN3C(=O)C2CC2)c2n[nH]c(=O)o2)c1C` [Example 99, 4-(cyclopropanecarbonyl)-N-((1S,2R)-2-(6-fluoro-2,3-dimethylphenyl)-1-(5-oxo-4,5-dihydro-1,3,4-oxadiazol-2-yl)propyl)-3,4-dihydro-2H-benzo[b][1,4]oxazine-8-sulfonamide], for which the IC50 worked out at 0.29 µM.

As to `CC(=O)OC1(C)CCOc2c(S(=O)(=O)N[C@H](c3n[nH]c(=O)o3)[C@H](C)c3c(F)ccc(Cl)c3C)ccc(Cl)c21` (stereo partly drawn) [Example 100, 5-chloro-8-(N-((1S,2R)-2-(3-chloro-6-fluoro-2-methylphenyl)-1-(5-oxo-4,5-dihydro-1,3,4-oxadiazol-2-yl)propyl)sulfamoyl)-4-methylchroman-4-yl acetate], the IC50 was determined as 0.3 µM.

As for `Cc1ccc(F)c([C@@H](C)[C@H](NS(=O)(=O)c2ccc(Cl)c3c2OCC(=O)N3CC(F)F)c2n[nH]c(=O)o2)c1C` [Example 101, 5-chloro-4-(2,2-difluoroethyl)-N-((1S,2R)-2-(6-fluoro-2,3-dimethylphenyl)-1-(5-oxo-4,5-dihydro-1,3,4-oxadiazol-2-yl)propyl)-3-oxo-3,4-dihydro-2H-benzo[b][1,4]oxazine-8-sulfonamide], the IC50 came to 0.13 µM.

As to `Cc1ccc(F)c([C@@H](C)[C@H](NS(=O)(=O)c2ccc(Cl)c3c2OCCN3CC(F)F)c2n[nH]c(=O)o2)c1C` [Example 102, 5-chloro-4-(2,2-difluoroethyl)-N-((1S,2R)-2-(6-fluoro-2,3-dimethylphenyl)-1-(5-oxo-4,5-dihydro-2,3,4-oxadiazol-2-yl)propyl)-3,4-dihydro-2H-benzo[b][1,4]oxazine-8-sulfonamide], the IC50 stood at 0.14 µM.

Regarding `COC(=O)c1cc(Cl)ccc1S(=O)(=O)N[C@H](c1n[nH]c(=O)o1)[C@H](C)c1c(F)ccc(C)c1C` [Example 103, methyl 5-chloro-2-(N-((1S,2R)-2-(6-fluoro-2,3-dimethylphenyl)-1-(5-oxo-4,5-dihydro-1,3,4-oxadiazol-2-yl)propyl)sulfamoyl)benzoate], the IC50 was 0.41 µM.
